Results published in patent US10738070B2, “Mannose-derived antagonists of FimH useful for treating disease” (Fimbrion Therapeutics, Inc., priority 2016, dated 2020).

Tests used:
FimH = target: T1, FimH (Escherichia coli, UniProt Q1R2J4); test: Hemagglutination inhibition (HAI) assay with UTI89 bacteria and guinea pig red blood cells; type: cell-based; conditions: concentration reducing bacterial agglutination of guinea pig red blood cells by greater than 90%; UTI89 bacteria
T1 construct: endogenous in cells; host or cells: E. coli UTI89 bacteria
Method: “HAI or EC>90” is that concentration of the FimH inhibitor/antagonist which reduces the bacterial agglutination of guinea pig red blood cells by greater than 90%.
HAI Assay The hemagglutination inhibition (HAI) assay was performed with UTI89 bacteria and guinea pig red blood cells, as previously described (S. J. Hultgren, W. R. Schwan, A. J. Schaeffer, J. L. Duncan Infect. Immun. 1986, 54, 613-620). Compounds not listed were not tested.

UTI89 bacteria = test: Biofilm inhibition assay; type: cell-based; conditions: read-out: Biofilm prevention IC50
Method: Biofilm Assay The biofilm inhibition assay was performed with UTI89 bacteria as previously described (L. Cegelski, J. S. Pinkner, N. D. Hammer, C. K. Cusumano, C. S. Hung, E. Chorell, V. Aberg, J. N. Walker, P. C. Seed, F. Almqvist, M. R. Chapman, S. J. Hultgren Nature Chem. Biol. 2009, 5, 913-919). Compounds not listed were not tested.

FimHL = FimHL (Escherichia coli, UniProt P08191); test: Differential scanning fluorimetry (DSF); type: binding; conditions: purified FimHL 10 μM with mannoside 100 μM; mean of two biological replicates
Method: Differential scanning fluorimetry (DSF) Purified FimHL (10 μM) in the absence or presence of mannoside (100 μM) was combined with 5× SYPRO Orange in a 50 μl reaction mixture buffered in 20 mM HEPES pH 7.5, 150 mM NaCl (HBS) and 0.4% DMSO. Binding equilibria were established by allowing the reaction mixtures to incubate at 23° C. for 30 min. These reaction mixtures were then placed in 96-well clear-bottom PCR plates and subjected to a melt curve from 20-90° C. in 0.5° C. increments of 15 seconds, each followed by a fluorescence read of the “HEX” channel in a Bio-Rad CFX96 thermocycler (Bio-Rad, Hercules, Calif.). Melt curves were fitted to the Boltzmann equation (y=A2+(A1−A2)/(1+exp((x−xo)/dx)) where xo is the Tm) to determine the melting temperature (Tm) using GraphPad Prism 6 (San Diego Calif.). Melting temperatures are represented as the mean and standard error of two biological replicates, each of which consisted of three technical replicates. Compounds not listed were not tested.

## Cc1cc(-n2cc(-c3cccnc3)nn2)ccc1O[C@H]1O[C@H](CO)[C@@H](O)[C@H](O)[C@@H]1O [Example 2, 2-methyl-4-[4-(pyridin-3-yl)-1H-1,2,3-triazol-1-yl]phenyl α-D-mannopyranoside]
FimH
  HAI titer EC>90: 0.032 µM
UTI89 bacteria
  IC50: 524 nM
FimHL
  DSF Melting Temp: 74.4 °C

## Cc1cc(-n2cc(-c3ccccc3)nn2)ccc1O[C@H]1O[C@H](CO)[C@@H](O)[C@H](O)[C@@H]1O [Example 4, 2-methyl-4-[4-(phenyl)-1H-1,2,3-triazol-1-yl]phenyl α-D-mannopyranoside]
FimH
  HAI titer EC>90: 0.032 µM
UTI89 bacteria
  IC50: 320 nM
FimHL
  DSF Melting Temp: 74.1 °C

## Cc1cc(-c2ccc3ccnc(N)c3c2)ccc1O[C@H]1O[C@H](CO)[C@@H](O)[C@H](O)[C@@H]1O [Example 14, 7-[4′-(α-D-mannopyranosyloxy)-3′-methylphenyl]-isoquinolin-1-amine]
FimH
  HAI titer EC>90: 0.02 µM
UTI89 bacteria
  IC50: 336 nM
FimHL
  DSF Melting Temp: 75.1 °C

## Cc1cc(-c2ccc3c(c2)C(=O)NCC3)ccc1OC1OC(CO)C(O)C(O)C1O [Example 21, 3,4-Dihydro-7-[4′-(α-D-mannopyranosyloxy)-3′-methylphenyl]-1(2H)-iso-quinolinone]
FimH
  HAI titer EC>90: 0.032 µM
UTI89 bacteria
  IC50: 247 nM
FimHL
  DSF Melting Temp: 75.0 °C
